Measured values as given in US6852688B2, “Compositions for treating diabetic retinopathy and methods of using same” (University of Florida, priority 2000, dated 2005).
Values joined by “and” are separate entries in the source; they are usually repeats but may differ in a detail not shown here. Equal values may be shown once.

Legend:
[1] = system: human retinal endothelial cells; details: rapidly proliferating cells, in vitro; cited from earlier work
patients with early DR = details: cited from earlier work
[2] = system: patients with type I diabetes and severe non-proliferative DR or non-"high risk" proliferative DR; test: Phase I human study: octreotide plus conventional diabetes management versus conventional management alone, 15 months; type: in vivo
From the text: A total of 39 patients with type I or type II diabetes and diagnosed with either severe non-proliferative DR or non-“high risk” proliferative DR were enrolled between 1991 and 1996 into Phase I or Phase II of the study. Subjects were recruited from patients treated for diabetes mellitus at the University of Florida Adult Endocrinology clinics and referrals from community retinal specialists. All patients provided written informed consent to participate in required study procedures. Volunteers in both phases of the study were randomized to receive conventional diabetes management alone (control group) or octreotide treatment with conventional diabetes care (OCT group). Octreotide was administered via subcutaneous injection 4 times daily or via continuous subcutaneous infusion with doses individually adjusted to the highest tolerated somatostatin analogue levels. The intent was to increase the dose of octreotide until serum IGF-1 was decreased to the hypopituitary range of 75 ng/mL or drug related adverse effects limited octreotide dosing. […] It was expected that approximately 35 to 50% of the control group would progress to photocoagulation within the 15-month period (The Diabetic Retinopathy Study Research Group: Indications for photocoagulation treatment of diabetic retinopathy: Diabetic Reinopathy Study Report No. 14. Int. Opthalmol. Clin. 27:239 (1987)).
Subjects were evaluated at monthly intervals for ocular changes using procedures established in the Early Treatment Diabetic Retinopathy Study (ETDRS) trial (Techniques for scatter and local photocoagulation treatment of diabetic retinopathy. Early Treatment Diabetic Retinopathy Study Report No. 3. The Early Treatment Diabetic Retinopathy Study Research Group. Int Ophthalmol Clin. 27:254-64 (1987)). Ocular examination included fluorescein angiograms and stereoscopic fundis photographs using seven standard photographic fields. Each field was 30 degrees with the first 2 fields centered on the disc and macula. The other fields imaged the surrounding retina. Photographs were assessed for severity of retinopathy using an extension of the modified Airlie House classification scheme. Severe non-proliferative DR required the presence of at least 3 of the following characteristics: cotton wool patches, venous beading, intraretinal microvascular abnormalities (IRMA) or extensive retinal hemorrhages. Inclusion criteria also required understanding the study protocol and willingness to participate in required study procedures. Exclusion criteria included: current use of tobacco products, regular medication other than prescribed antidiabetic agents and thyroxine, history of psychiatric illness, illicit drug use, sitting diastolic blood pressure values greater than […], serum creatinine clearance below 30 ml/min, and a body mass index that differed more than 20% from normal published ranges for the subject's height and sex.
Sixteen subjects with Type I diabetes participated in and completed the Phase-I protocol, with 8 patients randomly assigned to conventional diabetes management and 8 patients assigned treatment with maximally tolerated doses of octreotide in conjunction with routine diabetes management.
Initial octreotide doses of 500 μg/day were escalated based on IGF-1 levels to a maximum of 3000 μg/day during the 15-month treatment period. The range of maximally tolerated octreotide doses used throughout the 15-month treatment period was 600 to 3000 μg/day. The Phase protocol included a 5-day evaluation period with patients confined to the clinical research unit at study initiation. Octreotide treated patients were monitored for response to the initial 500 μg/day dose of octreotide (administered as a constant subcutaneous infusion). GH secretion was quantified from area under the serum concentration versus time curve (AUC) for blood samples collected every 2 to 4 hours throughout a 24-hour period. […]

[3] = system: patients with Type I or Type II diabetes and severe non-proliferative DR or non-"high risk" proliferative DR; test: Phase II human study: octreotide plus thyroid hormone (levothyroxine) versus conventional diabetes management, 15 months; type: in vivo; details: thyroxine alone 100 to 200 μg/day for hypothyroidism, no octreotide
From the text: A total of 39 patients with type I or type II diabetes and diagnosed with either severe non-proliferative DR or non-“high risk” proliferative DR were enrolled between 1991 and 1996 into Phase I or Phase II of the study. Subjects were recruited from patients treated for diabetes mellitus at the University of Florida Adult Endocrinology clinics and referrals from community retinal specialists. All patients provided written informed consent to participate in required study procedures. Volunteers in both phases of the study were randomized to receive conventional diabetes management alone (control group) or octreotide treatment with conventional diabetes care (OCT group). Octreotide was administered via subcutaneous injection 4 times daily or via continuous subcutaneous infusion with doses individually adjusted to the highest tolerated somatostatin analogue levels. […]
Subjects were evaluated at monthly intervals for ocular changes using procedures established in the Early Treatment Diabetic Retinopathy Study (ETDRS) trial (Techniques for scatter and local photocoagulation treatment of diabetic retinopathy. Early Treatment Diabetic Retinopathy Study Report No. 3. The Early Treatment Diabetic Retinopathy Study Research Group. Int Ophthalmol Clin. 27:254-64 (1987)). […] Photographs were assessed for severity of retinopathy using an extension of the modified Airlie House classification scheme. […]

[4] = octreotide treated group, p<0.05 vs conventionally treated group

Compound | effect on IGF-I and b-FGF stimulated growth of cells [1] | retinal disease versus conventionally managed patients (patients with early DR; early DR, one year, 400 μg/day) | thyroid adverse finding (patients with early DR; infused for one year with 400 μg/day, no evidence for clinical significance) | patients requiring PRP during the 15-month study ([2]; 8 patients per group, control also 4 of 8) | mean time for disease progression to laser surgery (PRP) ([2]; control 6.0 months, not different) | mean HbA1c after at least 3 months of study ([2]; conventional management 8.1%±1.8%, p<0.05) | mean decrease in 24 hour AUC for GH (GH secretion) ([2]; initial 500 μg/day constant subcutaneous infusion, day 5 of treatment, compared to control, p<0.05) | patients with IGF-1 decreased into the hypophysectomized range of 75 ng/ml ([2]; maximally tolerated doses 600 to 3000 μg/day) | effect on progression of DR ([2]; maximally tolerated octreotide in the absence of thyroid hormone replacement) | mean IGF-1 at the end of treatment ([2]; octreotide 600 to 3000 μg/day, 15 months, decreased from 241±58 ng/ml at study enrollment, p<0.05 vs control) | decrease in insulin requirements [2, 4] | improvement in proteinuria [2, 4] | control patients receiving thyroxine who required PRP [3]
C[C@@H](O)[C@@H]1NC(=O)[C@H](CCCCN)NC(=O)[C@@H](Cc2c[nH]c3ccccc23)NC(=O)[C@H](Cc2ccccc2)NC(=O)[C@@H](NC(=O)[C@H](N)Cc2ccccc2)CSSC[C@@H](C(=O)N[C@H](CO)[C@@H](C)O)NC1=O [octreotide] | direct inhibitory effects | no difference | mild hypothyroidism | Four and 4 of 8 | 8.5 months | 6.4%±0.9 | 33% | 1 of 8 | not effective in retarding progression of DR | 130 ± 38 ng/mL | 29% | 82% | 
N[C@@H](Cc1cc(I)c(Oc2cc(I)c(O)c(I)c2)c(I)c1)C(=O)O [thyroxine, levothyroxine] |  |  |  |  |  |  |  |  |  |  |  |  | 3 of the 7
